Converted amounts (≈) assume the structure as drawn.
Tests used:
[1] = molecular target: T1, Poly [ADP-ribose] polymerase tankyrase-1 (Homo sapiens, UniProt O95271)
T1 sequence (O95271 whole entry): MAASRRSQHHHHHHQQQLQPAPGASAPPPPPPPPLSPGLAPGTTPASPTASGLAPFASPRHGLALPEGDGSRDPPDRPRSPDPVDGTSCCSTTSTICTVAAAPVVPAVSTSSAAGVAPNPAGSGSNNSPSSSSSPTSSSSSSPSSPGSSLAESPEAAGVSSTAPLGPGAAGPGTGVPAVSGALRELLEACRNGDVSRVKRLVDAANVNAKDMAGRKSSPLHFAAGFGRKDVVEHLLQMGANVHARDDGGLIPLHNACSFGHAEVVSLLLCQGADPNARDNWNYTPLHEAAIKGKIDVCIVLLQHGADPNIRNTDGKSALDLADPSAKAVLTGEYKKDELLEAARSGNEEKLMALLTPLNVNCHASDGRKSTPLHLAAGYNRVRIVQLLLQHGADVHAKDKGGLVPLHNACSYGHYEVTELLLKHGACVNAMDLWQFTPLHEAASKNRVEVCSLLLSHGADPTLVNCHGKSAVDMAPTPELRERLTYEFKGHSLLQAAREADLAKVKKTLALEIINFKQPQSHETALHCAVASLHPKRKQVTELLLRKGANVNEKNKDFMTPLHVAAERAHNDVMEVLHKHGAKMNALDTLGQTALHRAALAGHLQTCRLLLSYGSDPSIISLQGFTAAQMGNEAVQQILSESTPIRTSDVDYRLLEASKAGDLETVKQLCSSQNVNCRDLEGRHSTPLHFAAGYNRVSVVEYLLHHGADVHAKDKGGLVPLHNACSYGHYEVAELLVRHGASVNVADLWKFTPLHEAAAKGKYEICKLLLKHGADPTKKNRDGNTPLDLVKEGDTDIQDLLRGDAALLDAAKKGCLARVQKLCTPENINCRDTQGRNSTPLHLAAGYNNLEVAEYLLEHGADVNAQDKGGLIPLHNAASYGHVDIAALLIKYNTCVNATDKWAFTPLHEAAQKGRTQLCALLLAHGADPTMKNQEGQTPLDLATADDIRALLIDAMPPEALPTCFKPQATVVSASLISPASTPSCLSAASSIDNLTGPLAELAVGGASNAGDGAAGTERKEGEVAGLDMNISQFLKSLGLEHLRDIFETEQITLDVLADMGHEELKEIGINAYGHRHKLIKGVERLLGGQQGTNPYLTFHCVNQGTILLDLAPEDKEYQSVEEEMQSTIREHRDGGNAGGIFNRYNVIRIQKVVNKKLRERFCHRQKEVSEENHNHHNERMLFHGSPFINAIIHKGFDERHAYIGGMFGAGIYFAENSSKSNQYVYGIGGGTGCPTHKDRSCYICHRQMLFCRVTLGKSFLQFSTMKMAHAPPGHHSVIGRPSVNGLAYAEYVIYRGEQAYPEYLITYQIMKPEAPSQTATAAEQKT
Description: Inhibition of recombinant human N-terminal TEV cleavage site-fused/FLAG-poly his-tagged TNKS SAM-PARP domain (1024 to 1327 residues) expressed in Escherichia coli assessed as reduction in auto-PARylation preincubated for 10 mins followed by biotinylated-NAD+ addition and measured after 45 mins by ELISA

[2] = molecular target: T2, Poly [ADP-ribose] polymerase tankyrase-2 (Homo sapiens, UniProt Q9H2K2)
T2 sequence (Q9H2K2 whole entry): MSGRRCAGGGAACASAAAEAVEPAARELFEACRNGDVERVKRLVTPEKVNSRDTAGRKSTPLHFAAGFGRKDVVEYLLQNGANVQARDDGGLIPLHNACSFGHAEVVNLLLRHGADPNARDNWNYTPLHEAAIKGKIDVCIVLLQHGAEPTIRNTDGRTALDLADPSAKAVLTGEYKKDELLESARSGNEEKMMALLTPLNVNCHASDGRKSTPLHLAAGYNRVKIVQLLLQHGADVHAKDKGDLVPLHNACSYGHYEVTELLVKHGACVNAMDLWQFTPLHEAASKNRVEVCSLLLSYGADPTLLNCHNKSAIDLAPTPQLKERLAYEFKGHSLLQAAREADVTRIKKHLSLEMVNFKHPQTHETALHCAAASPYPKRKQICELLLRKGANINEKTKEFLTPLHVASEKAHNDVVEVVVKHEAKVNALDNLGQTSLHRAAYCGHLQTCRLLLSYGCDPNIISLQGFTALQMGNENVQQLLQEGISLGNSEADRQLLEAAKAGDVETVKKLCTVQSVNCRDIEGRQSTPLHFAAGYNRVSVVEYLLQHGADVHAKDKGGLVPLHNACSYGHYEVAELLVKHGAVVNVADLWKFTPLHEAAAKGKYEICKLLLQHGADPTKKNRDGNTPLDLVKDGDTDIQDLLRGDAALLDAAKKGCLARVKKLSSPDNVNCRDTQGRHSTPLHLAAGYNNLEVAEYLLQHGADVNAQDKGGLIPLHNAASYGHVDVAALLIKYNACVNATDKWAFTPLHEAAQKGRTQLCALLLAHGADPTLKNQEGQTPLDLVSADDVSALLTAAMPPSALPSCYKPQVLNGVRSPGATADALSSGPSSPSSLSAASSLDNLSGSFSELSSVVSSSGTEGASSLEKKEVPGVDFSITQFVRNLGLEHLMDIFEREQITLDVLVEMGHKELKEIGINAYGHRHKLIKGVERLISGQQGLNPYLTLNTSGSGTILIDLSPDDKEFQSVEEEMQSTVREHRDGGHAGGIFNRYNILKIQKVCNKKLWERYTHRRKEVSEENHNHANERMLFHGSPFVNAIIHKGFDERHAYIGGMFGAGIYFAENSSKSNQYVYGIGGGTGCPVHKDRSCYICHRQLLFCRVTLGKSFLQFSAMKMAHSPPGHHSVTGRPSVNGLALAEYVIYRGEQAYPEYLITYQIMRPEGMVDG
Description: Inhibition of recombinant human N-terminal TEV cleavage site-fused/FLAG-poly his-tagged TNKS2 SAM-PARP domain (613 to 1166 residues) expressed in Escherichia coli assessed as reduction in auto-PARylation preincubated for 10 mins followed by biotinylated-NAD+ addition and measured after 45 mins by ELISA

[3] = molecular target: T3, Tankyrase 1/2 (Homo sapiens, UniProt Q9H2K2+O95271)
T3 sequence (Q9H2K2 whole entry): T2 sequence (Q9H2K2 whole entry)
T3 sequence (O95271 whole entry): T1 sequence (O95271 whole entry)
Description: Inhibition of TNKS/TNKS2 (unknown origin) expressed in human DLD1 cells assessed as reduction in Wnt-signaling measured after 24 hrs by TCF-luciferase reporter gene assay

[4] = system: COLO 320DM; assay: cells; details: Homo sapiens, 96 h
Description: Antiproliferative activity against human COLO320DM cells assessed as inhibition of cell growth measured after 4 days by CellTiter-Glo assay

[5] = physchem; details: phosphate buffer, pH 7.4

| IC50 [1] [nM] | IC50 [2] [nM] | IC50 [3] [nM] | GI50 [4] [nM] | solubility at 1 h, 200 µM [5] [µg/mL] | Structure (SMILES) |
| --- | --- | --- | --- | --- | --- |
| 8.4 | 5.8 | 818 | 6900 | 9.2 (≈ 24.8 µM) | O=c1[nH]c(N2CCC3(CC2)CNc2cc(Cl)ccc23)nc2c1CCCC2 |
| 7.5 | 10.4 | 609 | 7500 | 11 (≈ 27.1 µM) | O=c1[nH]c(N2CCC3(CC2)CNc2cc(Cl)cc(Cl)c23)nc2c1CCCC2 |
| 16.7 | 7.6 | 657 | 10300 | 3.2 (≈ 9.03 µM) | O=c1[nH]c(N2CCC3(CC2)CNc2cc(F)ccc23)nc2c1CCCC2 |
| 5.8 | 13.4 | 91.2 | 8800 | 1.9 (≈ 4.43 µM) | O=C1Nc2cccc(Br)c2C12CCN(c1nc3c(c(=O)[nH]1)CCCC3)CC2 |
| 5.4 | 3.3 | 110 | 5200 | 6.3 (≈ 16.9 µM) | O=c1[nH]c(N2CCC3(CC2)CNc2cc(F)cc(F)c23)nc2c1CCCC2 |
| 10.2 | 4.9 | 21.5 | 5000 | 2.8 (≈ 7.28 µM) | O=C1Nc2cccc(Cl)c2C12CCN(c1nc3c(c(=O)[nH]1)CCCC3)CC2 |
| 4.4 | 2.8 | 72.4 | 3300 | 4.2 (≈ 11.9 µM) | O=c1[nH]c(N2CCC3(CC2)CNc2cccc(F)c23)nc2c1CCCC2 |
| 1350 | 3480 | 7282 | – | 1.8 (≈ 5.08 µM) | COc1ccccc1N1CCN(c2nc3c(c(=O)[nH]2)CC(C)CC3)CC1 (stereo not given) |
| 7780 | 6980 | > 10000 | – | 66.4 (≈ 194 µM) | COc1ccccc1N1CCN(c2nc3c(c(=O)[nH]2)CNCC3)CC1 |
| 9.9 | 18.5 | 799 | 23600 | 69.2 (≈ 191 µM) | N#Cc1cccc2c1C1(CCN(c3nc4c(c(=O)[nH]3)CCCC4)CC1)CN2 |
| > 20000 | > 20000 | > 10000 | – | 2.4 (≈ 6.51 µM) | COc1ccccc1N1CCN(c2nc3c(c(=O)[nH]2)CC(C)(C)CC3)CC1 |
| – | – | > 10000 | – | – | COc1ccccc1N1CCN(C2=NC3CCCCCC3C(=O)N2)CC1 (stereo not given) |
| 16.8 | 26.8 | 496 | 20400 | 5.3 (≈ 14.1 µM) | N#Cc1cccc2c1C1(CCN(c3nc4c(c(=O)[nH]3)CCCC4)CC1)C(=O)N2 |
| > 20000 | > 20000 | > 10000 | – | 69.7 (≈ 196 µM) | COc1ccccc1N1CCN(c2nc3c(c(=O)[nH]2)CN(C)CC3)CC1 |
| 5.3 | 7.1 | 533 | 21400 | 15.7 (≈ 37.4 µM) | O=C1Nc2cc(Cl)cc(Cl)c2C12CCN(c1nc3c(c(=O)[nH]1)CCCC3)CC2 |
| 135 | 58.9 | 1536 | – | 4.9 (≈ 15.8 µM) | Oc1nc(N2CCN(c3ccccc3)CC2)nc2c1CCCC2 |
| 16 | 15.6 | 454 | 10400 | 8.9 (≈ 21.4 µM) | O=c1[nH]c(N2CCC3(CC2)CNc2cccc(Br)c23)nc2c1CCCC2 |
| 5.8 | 4.7 | 31.1 | 2300 | 3.1 (≈ 8.41 µM) | O=C1Nc2cccc(F)c2C12CCN(c1nc3c(c(=O)[nH]1)CCCC3)CC2 |
| 14300 | 6420 | 5401 | 19600 | – | COc1ccccc1N1CCC(c2nc3c(c(=O)[nH]2)CCCC3)CC1 |
| 11.1 | 14.4 | 623 | 19900 | 1.8 (≈ 4.68 µM) | O=C1Nc2cc(Cl)ccc2C12CCN(c1nc3c(c(=O)[nH]1)CCCC3)CC2 |

Reference: ChEMBL document CHEMBL4387706, “Discovery of Novel Spiroindoline Derivatives as Selective Tankyrase Inhibitors” (J Med Chem, 2019)
